Structures can show the parent of a compound that is named as a salt.
Target: T1, HCV polymerase (Hepatitis C virus genotype 1b, UniProt P26663)
T1 construct: a region encoding NS5B (591 amino acids; J Virol 1991 Mar, 65(3), 1105-13) was amplified by PCR; 6 His (N); made in house; host or cells: Escherichia coli
Assay: biochemical
Conditions: read-out: HCV polymerase inhibitory activity IC50

T1 sequence (P26663 2420-3010): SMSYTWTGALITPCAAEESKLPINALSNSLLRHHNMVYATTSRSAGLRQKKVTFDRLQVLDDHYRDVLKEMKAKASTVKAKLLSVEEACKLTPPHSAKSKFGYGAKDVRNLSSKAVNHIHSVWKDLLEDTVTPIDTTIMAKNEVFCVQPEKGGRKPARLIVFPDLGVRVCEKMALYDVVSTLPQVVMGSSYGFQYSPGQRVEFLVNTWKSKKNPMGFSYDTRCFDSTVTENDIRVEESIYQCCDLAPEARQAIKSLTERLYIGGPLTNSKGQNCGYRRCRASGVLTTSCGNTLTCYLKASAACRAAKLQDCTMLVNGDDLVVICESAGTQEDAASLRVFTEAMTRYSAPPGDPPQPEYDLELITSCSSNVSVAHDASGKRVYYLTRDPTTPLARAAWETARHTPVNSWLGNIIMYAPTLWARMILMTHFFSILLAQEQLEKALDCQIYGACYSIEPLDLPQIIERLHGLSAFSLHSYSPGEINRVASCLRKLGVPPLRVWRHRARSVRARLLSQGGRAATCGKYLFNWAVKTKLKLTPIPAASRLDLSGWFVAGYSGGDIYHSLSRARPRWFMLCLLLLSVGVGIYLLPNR

Compound | IC50
CC(C)NC(=O)Nc1ccc(-c2ccc(Cl)cc2)c(COc2ccc(-c3nc4cc(C(=O)O)ccc4n3C3CCCCC3)c(F)c2)c1 [Example 395, 2-{4-[2-(4-chlorophenyl)-5-{(isopropylcarbamoyl)amino}benzyloxy]-2-fluorophenyl}-1-cyclohexylbenzimidazole-5-carboxylic acid hydrochloride] | 16 nM
CC(C)NC(=O)c1ccc(-c2ccc(F)c(F)c2)c(COc2ccc(-c3nc4cc(C(=O)O)ccc4n3C3CCCCC3)c(F)c2)c1 [Example 396, 2-{4-[2-(3,4-difluorophenyl)-5-(isopropylcarbamoyl)benzyloxy]-2-fluorophenyl}-1-cyclohexylbenzimidazole-5-carboxylic acid] | 25 nM
CC(C)NC(=O)c1ccc(-c2ccc(F)cc2F)c(COc2ccc(-c3nc4cc(C(=O)O)ccc4n3C3CCCCC3)c(F)c2)c1 [Example 397, 2-{4-[2-(2,4-difluorophenyl)-5-(isopropylcarbamoyl)benzyloxy]-2-fluorophenyl}-1-cyclohexylbenzimidazole-5-carboxylic acid hydrochloride] | 37 nM
CC(C)NC(=O)c1ccc(-c2cc(Cl)cc(Cl)c2)c(COc2ccc(-c3nc4cc(C(=O)O)ccc4n3C3CCCCC3)c(F)c2)c1 [Example 398, 2-{4-[2-(3,5-dichlorophenyl)-5-(isopropylcarbamoyl)benzyloxy]-2-fluorophenyl}-1-cyclohexylbenzimidazole-5-carboxylic acid hydrochloride] | 77 nM
CC(C)NC(=O)c1ccc(-c2ccc(F)c(Cl)c2)c(COc2ccc(-c3nc4cc(C(=O)O)ccc4n3C3CCCCC3)c(F)c2)c1 [Example 399, 2-{4-[2-(3-chloro-4-fluorophenyl)-5-(isopropylcarbamoyl)-benzyloxy]-2-fluorophenyl}-1-cyclohexylbenzimidazole-5-carboxylic acid hydrochloride] | 32 nM
CC(C)NS(=O)(=O)c1ccc(-c2ccc(Cl)cc2)c(COc2ccc(-c3nc4cc(C(=O)O)ccc4n3C3CCCCC3)c(F)c2)c1 [Example 409, 2-{4-[2-(4-chlorophenyl)-5-(isopropylaminosulfonyl)benzyloxy]-2-fluorophenyl}-1-cyclohexylbenzimidazole-5-carboxylic acid hydrochloride] | 20 nM
CN(C)C(=O)c1ccc(-c2ccc(Cl)cc2)c(COc2ccc(-c3nc4cc(C(=O)O)ccc4n3C3CCCC3)c(F)c2)c1 [Example 410, 2-{4-[2-(4-chlorophenyl)-5-(dimethylcarbamoyl)benzyloxy]-2-fluorophenyl}-1-cyclopentylbenzimidazole-5-carboxylic acid hydrochloride] | 18 nM
O=C(O)c1ccc2c(c1)nc(-c1ccc(OCc3cc(C(=O)N4CCC(O)CC4)ccc3-c3ccc(Cl)cc3)cc1F)n2C1CCCC1 [Example 411, 2-{4-[2-(4-chlorophenyl)-5-(4-hydroxypiperidin-1-ylcarbonyl)-benzyloxy]-2-fluorophenyl}-1-cyclopentylbenzimidazole-5-carboxylic acid hydrochloride] | 15 nM
CC(C)NC(=O)c1ccc(-c2ccc(Cl)cc2)c(COc2ccc(-c3nc4cc(C(=O)O)ccc4n3C3CCCC3)c(F)c2)c1 [Example 412, 2-{4-[2-(4-chlorophenyl)-5-(isopropylcarbamoyl)benzyloxy]-2-fluorophenyl}-1-cyclopentylbenzimidazole-5-carboxylic acid hydrochloride] | 19 nM
CC(C)NC(=O)c1ccc(-c2ccc(Cl)cc2)c(COc2ccc(-c3nc4cc(C(=O)O)ccc4n3C3CCCC3)cc2)c1 [Example 413, 2-{4-[2-(4-chlorophenyl)-5-(isopropylcarbamoyl)benzyloxy]phenyl}-1-cyclopentylbenzimidazole-5-carboxylic acid hydrochloride] | 26 nM
CN(C)C(=O)c1ccc(-c2ccc(Cl)cc2)c(COc2ccc(-c3nc4cc(C(=O)O)ccc4n3C3CCCC3)cc2)c1 [Example 414, 2-{4-[2-(4-chlorophenyl)-5-(dimethylcarbamoyl)benzyloxy]phenyl}-1-cyclopentylbenzimidazole-5-carboxylic acid hydrochloride] | 24 nM
O=C(O)c1ccc2c(c1)nc(-c1ccc(OCc3cc(C(=O)N4CCC(O)CC4)ccc3-c3ccc(Cl)cc3)cc1)n2C1CCCC1 [Example 415, 2-{4-[2-(4-chlorophenyl)-5-(4-hydroxypiperidin-1-ylcarbonyl)benzyloxy]phenyl}-1-cyclopentylbenzimidazole-5-carboxylic acid hydrochloride] | 19 nM
CC(C)NC(=O)c1ccc(-c2ccc(Cl)cc2)c(COc2ccc(-c3nc4cc(C(=O)O)ccc4n3C3CCSCC3)cc2)c1 [Example 416, 2-{4-[2-(4-chlorophenyl)-5-(isopropylcarbamoyl)benzyloxy]phenyl}-1-(tetrahydrothiopyran-4-yl)benzimidazole-5-carboxylic acid hydrochloride] | 24 nM
O=C(O)c1ccc2c(c1)nc(-c1ccc(OCc3cc(C(=O)N4CCCC4)ccc3-c3ccc(Cl)cc3)cc1)n2C1CCSCC1 [Example 417, 2-{4-[2-(4-chlorophenyl)-5-(pyrrolidin-1-ylcarbonyl)benzyloxy]phenyl}-1-(tetrahydrothiopyran-4-yl)benzimidazole-5-carboxylic acid hydrochloride] | 29 nM
CC(C)NC(=O)c1ccc(-c2ccc(Cl)cc2)c(COc2ccc(-c3nc4cc(C(=O)O)ccc4n3C3CCSCC3)c(F)c2)c1 [Example 418, 2-{4-[2-(4-chlorophenyl)-5-(isopropylcarbamoyl)benzyloxy]-2-fluorophenyl}-1-(tetrahydrothiopyran-4-yl)benzimidazole-5-carboxylic acid hydrochloride] | 16 nM
O=C(O)c1ccc2c(c1)nc(-c1ccc(OCc3cc(N4CCCC4=O)ccc3-c3ccc(Cl)cc3)cc1F)n2C1CCSCC1 [Example 419, 2-{4-[2-(4-chlorophenyl)-5-(2-oxopyrrolidin-1-yl)benzyloxy]-2-fluorophenyl}-1-(tetrahydrothiopyran-4-yl)benzimidazole-5-carboxylic acid hydrochloride] | 21 nM
CC(C)NC(=O)c1ccc(-c2ccc(Cl)cc2)c(COc2ccc(-c3nc4cc(C(=O)O)ccc4n3N3CCCCC3)c(F)c2)c1 [Example 420, 2-{4-[2-(4-chlorophenyl)-5-(isopropylcarbamoyl)benzyloxy]-2-fluorophenyl}-1-piperidinobenzimidazole-5-carboxylic acid hydrochloride] | 15 nM
O=C(O)c1ccc2c(c1)nc(-c1ccc(OCc3cc(C(=O)N4CCCC4)ccc3-c3ccc(Cl)cc3)cc1F)n2N1CCCCC1 [Example 421, 2-{4-[2-(4-chlorophenyl)-5-(pyrrolidin-1-ylcarbonyl)benzyloxy]-2-fluorophenyl}-1-piperidinobenzimidazole-5-carboxylic acid] | 17 nM
O=C(O)c1ccc2c(c1)nc(-c1ccc(OCc3cc(C4=NCCN4)ccc3-c3ccc(Cl)cc3)cc1F)n2C1CCCCC1 [Example 422, 2-{4-[2-(4-chlorophenyl)-5-(2-imidazolin-2-yl)benzyloxy]-2-fluorophenyl}-1-cyclohexylbenzimidazole-5-carboxylic acid dihydrochloride] | 17 nM
O=C(O)c1ccc2c(c1)nc(-c1ccc(OCc3cc(N4CCOC4=O)ccc3-c3ccc(Cl)cc3)cc1F)n2C1CCCCC1 [Example 423, 2-{4-[2-(4-chlorophenyl)-5-(2-oxooxazolidin-3-yl)benzyloxy]-2-fluorophenyl}-1-cyclohexylbenzimidazole-5-carboxylic acid hydrochloride] | 17 nM
O=C(O)c1ccc2c(c1)nc(-c1ccc(OCc3cc(N4CCNC4=O)ccc3-c3ccc(Cl)cc3)cc1F)n2C1CCCCC1 [Example 424, 2-{4-[2-(4-chlorophenyl)-5-(2-oxoimidazolidin-1-yl)benzyloxy]-2-fluorophenyl}-1-cyclohexylbenzimidazole-5-carboxylic acid hydrochloride] | 20 nM
O=C(O)c1ccc2c(c1)nc(-c1ccc(OCc3cc(NC4=NCCO4)ccc3-c3ccc(Cl)cc3)cc1F)n2C1CCCCC1 [Example 425, 2-{4-[2-(4-chlorophenyl)-5-(2-oxazolin-2-ylamino)benzyloxy]-2-fluorophenyl}-1-cyclohexylbenzimidazole-5-carboxylic acid dihydrochloride] | 26 nM
CN(C)C(=O)COCc1nc(-c2ccc(F)cc2)c(COc2ccc(-c3nc4cc(C(=O)O)ccc4n3C3CCCCC3)cc2)s1 [Example 426, 2-{4-[{2-[{(dimethylcarbamoyl)methoxy}methyl]-4-(4-fluorophenyl)thiazol-5-yl}methoxy]phenyl}-1-cyclohexylbenzimidazole-5-carboxylic acid hydrochloride] | 53 nM
O=C(O)c1ccc2c(c1)nc(-c1ccc(OCc3sc(CN4CCC(O)CC4)nc3-c3ccc(F)cc3)cc1)n2C1CCCCC1 [Example 427, 2-{4-[{4-(4-fluorophenyl)-2-(4-hydroxypiperidin-1-ylmethyl)thiazol-5-yl}methoxy]phenyl}-1-cyclohexylbenzimidazole-5-carboxylic acid dihydrochloride] | 20 nM
NC(=O)COCc1nc(-c2ccc(F)cc2)c(COc2ccc(-c3nc4cc(C(=O)O)ccc4n3C3CCCCC3)cc2)s1 [Example 428, 2-{4-[{4-(4-fluorophenyl)-2-[(carbamoylmethoxy)methyl]thiazol-5-yl}methoxy]phenyl}-1-cyclohexylbenzimidazole-5-carboxylic acid hydrochloride] | 26 nM
CNC(=O)c1nc(-c2ccc(F)cc2)c(COc2ccc(-c3nc4cc(C(=O)O)ccc4n3C3CCCCC3)c(F)c2)s1 [Example 429, 2-{4-[{4-(4-fluorophenyl)-2-(methylcarbamoyl)thiazol-5-yl}methoxy]-2-fluorophenyl}-1-cyclohexylbenzimidazole-5-carboxylic acid hydrochloride] | 17 nM
O=C(O)c1ccc2c(c1)nc(-c1ccc(OCc3sc(C(=O)NCCO)nc3-c3ccc(F)cc3)cc1F)n2C1CCCCC1 [Example 430, 2-{4-[{4-(4-fluorophenyl)-2-{(2-hydroxyethyl)carbamoyl}thiazol-5-yl}methoxy]-2-fluorophenyl}-1-cyclohexylbenzimidazole-5-carboxylic acid hydrochloride] | 17 nM

— patent US20040082635A1, “Fused cyclic compounds and medicinal use thereof” (priority 2001, published 2004)
